Drawing on ChEMBL document CHEMBL3132802, “Azole derivatives as novel non-iron-chelating inhibitors of prolyl hydroxylase 3 for HIF-1 activation” (Medchemcomm, 2013), this text covers Activity, viability and IC50 for eight compounds.

Structures are written as SMILES. Activity calls are given as the source filed them. No cut-off for these calls is given here. A value given as a limit tells only on which side of the number the result lay.

The subject of series [1] is NCI-H446. As to the kind of experiment: Effect on HIF1alpha mRNA expression in human NCI-H446 cells after 12 hrs by RT-PCR analysis. It is filed as functional, cell-based.
The nature of series [2]: Cytotoxicity against human NCI-H446 cells assessed as cell survival up to 200 uM after 24 hrs by MTT assay. It is filed as cell-based. Particulars: read-out: Survival.
Series [3] deals with NCI-H446. Nature of the series: Cytotoxicity against human NCI-H446 cells assessed as proliferation rate up to 200 uM after 24 hrs by MTT assay. It is filed as cell-based. Particulars: nci-h446, 24 h. For orientation: Tetrazolium dyes change colour on reduction, which living cells bring about.
A further series concerns the target Prolyl hydroxylase EGLN3 (Homo sapiens, UniProt Q9H6Z9). Nature of the series: Inhibition of recombinant human PHD3 expressed in Escherichia coli using HIF19 peptide as substrate by fluorescence emission spectroscopy.

Chain of Prolyl hydroxylase EGLN3 (Q9H6Z9 whole entry): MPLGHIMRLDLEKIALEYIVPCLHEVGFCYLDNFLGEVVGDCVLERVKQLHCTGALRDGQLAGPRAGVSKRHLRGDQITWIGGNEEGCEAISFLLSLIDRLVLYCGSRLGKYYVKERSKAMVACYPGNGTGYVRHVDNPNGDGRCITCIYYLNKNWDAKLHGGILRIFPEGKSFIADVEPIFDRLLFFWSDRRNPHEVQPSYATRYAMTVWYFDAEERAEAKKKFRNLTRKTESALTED

Regarding `c1ccc2[nH]c(CCn3nnc4ccccc43)nc2c1`, the outcome with NCI-H446 [1] was inactive. The viability at 24 h in series [2] was more than 90%.
On to `O=C(O)CCn1nnc2ccccc21`, for which the result in the series with NCI-H446 [1] was inactive. In addition, the viability at 24 h in series [2] is more than 90%.
Turning to `c1ccc2[nH]c(CCn3cncn3)nc2c1`, the outcome with NCI-H446 [1] was inactive. Also, the Activity in the series with NCI-H446 [3] is recorded as more than 80%.
Usually IC50 stands for the concentration that inhibits the measured activity by half. For `c1ccc2[nH]nnc2c1` [BENZOTRIAZOLE], the IC50 at Prolyl hydroxylase EGLN3 is more than 100 µM.
Consider `O=C(O)CCn1cncn1`, for which, in the series with NCI-H446 [1], the result was inactive. Besides, the Activity in the series on NCI-H446 [3] is more than 80%.
In the case of `c1ccc2[nH]cnc2c1` [BENZIMIDAZOLE], on Prolyl hydroxylase EGLN3, the IC50 was more than 100 µM.
As to `O=C(O)CCn1cnc2ccccc21`, in the series with NCI-H446 [1], the result was inactive. Further, the Activity in the series with NCI-H446 [3] is on record as more than 80%.
Take `O=C(O)CCn1ccnc1`: the outcome with NCI-H446 [1] was inactive. For the same compound, the viability at 24 h in series [2] was more than 90%.
